{
  "source": "patent US6583150B1",
  "about": "“Pharmaceutical composition based on polyaromatic compounds” (Laboratorie L. Lafon, priority 1999, dated 2003)",
  "key": {"[1]": {"system": "T-47D", "assay": "MTT cytotoxicity test, T-47D", "type": "cell-based", "details": "Homo sapiens, T47D, T-47D breast cancer, 72 hours, read-out: concentrations flanking the IC50", "method": "(§1) The influence of the compounds of formulae I and II on neoplastic cells was evaluated using the MTT calorimetric test. The principle of the MTT test is based on the mitochondrial reduction by metabolically active live cells of the yellow-colored product MTT (3-(4,5-dimethylthiazol-2-yl)-2,5-diphenyltetrazolium bromide) to a blue-colored product, formazan. The amount of formazan thus obtained is directly proportional to the amount of live cells present in the culture well(s). This amount of formazan is measured by spectrophotometry.\n(§2) The cell lines are maintained in monolayer culture at 37° C. in stoppered culture dishes containing 25 MM HEPES MEM (Minimum Essential Medium) base medium. This medium, which is suitable for growing a range of varied diploid or primary mammalian cells, is then supplemented: […]\n(§3) with a an amount of 5% FCS (Fetal Calf Serum) decomplemented at 56° C. for 1 hour, with 0.6 mg/mL of L-glutamine, with 200 IU/mL of penicillin, with […] of streptomycin, with 0.1 mg/mL of gentamicin.\nThe 12 human cancer cell lines used were obtained from the American Type Culture Collection (ATCC, Rockville, Md., USA). These 12 cell lines are: […]"}, "[2]": {"system": "U-87MG", "assay": "MTT cytotoxicity test, U-87MG", "type": "cell-based", "details": "Homo sapiens, U-87MG glioblastoma, 72 hours, read-out: concentrations flanking the IC50", "method": "as §1, §2, §3\nThe 12 human cancer cell lines used were obtained from the American Type Culture Collection (ATCC, Rockville, Md., USA). These 12 cell lines are:\nU-373MG (code ATCC: HTB-17) and U-87MG (code ATCC: HTB-14) which are two glioblastomas, Experimentally: 100 μl of a cell suspension containing 200 000 to 50 000 (depending on the cell type used) cells/mL of culture medium are inoculated in flat-bottomed 96-well multi-well plates and are incubated at 37° C. under an atmosphere comprising 5% CO2 and 70% humidity. […] The intensity of the resulting blue coloration, and thus of the conversion of the yellow MTT product into blue formazan by the cells that are still alive at the end of the experiment is quantified by spectrophotometry using a DYNATECH IMMUNOASSAY SYSTEM machine at wavelengths of 570 nm and 630 nm corresponding, respectively, to the maximum absorption wavelengths of formazan and to the background noise. […]"}},
  "note": "pIC50: −log10 of the molar value.",
  "data": [
    {"smiles": "O=C1c2ncccc2-c2nc3ccccc3c3ccnc1c23", "note": "[CRL 8299, Benzo[b]pyrido[4,3,2-de][1,7]phenanthroline-8-one]", "values": [
      {"measurement": "pIC50", "setting": "[1]", "result": 8.00},
      {"measurement": "pIC50", "setting": "[2]", "result": "> 10.00"}
    ]}
  ]
}
